The results in this text go back to patent US20060111306A1, “DEHYDROEPHIANDROSTERONE AND UBIQUINONE COMPOSITIONS FOR TREATING ASTHMA AND BRONOCONSTRICTION” (priority 1995, published 2006).

Structures are written as SMILES.

The test system of the assay is Intracellular Adenosine in Various Rat Tissues. Nature of the assay: In vivo effect on tissue adenosine levels (HPLC of 1,N6-ethenoadenosine). More on the design: species or system Fischer 344 rats. As to conditions: rats. As for the experimental part:
Folinic acid (50 mg/kg) was administered intraperitoneally once daily for fourteen days. […] Hearts were removed from animals and flash frozen in liquid nitrogen with 10 seconds of death. Liver and lungs were removed en bloc and flash frozen with 30 seconds of death. Brain tissue was subsequently dissected.

Take `Nc1nc(=O)c2c([nH]1)NCC(CNc1ccc(C(=O)N[C@@H](CCC(=O)O)C(=O)O)cc1)N2C=O` (mixture of isomers) [Folinic Acid (F.A.), Folinic acid]: the “effect on adenosine levels, administered alone (in words)” value (folinic acid alone, all organs studied) is recorded as “increase in adenosine levels for all organs studied”. Also, the “effect of co-administration on steroid-mediated adenosine depletion (in words)” value (folinic acid co-administered with DHEA or methyltestosterone) is “completely abrogated steroid-mediated adenosine depletion”.
